# Like-named read-outs stand apart in the source and are kept apart here.
# Test system: 280 human cancer cell lines
# Assay: OncoPanel cell proliferation assay (10-day)
# Type: cell-based
# Conditions: for EC50: read-out: Cell Count EC50; for IC50: read-out: Cell Count IC50
# [1] = Homo sapiens, 22Rv1, 22Rv1, Prostate
# [2] = Homo sapiens, 786-0, 786-O, Kidney
# [3] = Homo sapiens, A7, Skin (Melanoma)
# [4] = Homo sapiens, A 172, A172, CNS - Glioma
# [5] = Homo sapiens, A253, A-253, Head and Neck
# [6] = Homo sapiens, A388, Head and Neck
# [7] = Homo sapiens, A498, A498, Kidney
# [8] = Homo sapiens, A549, A549, Lung - NSCLC
# [9] = Homo sapiens, A673, A-673, Soft Tissue - Sarcoma
# [10] = Homo sapiens, A704, A-704, Kidney
# [11] = Homo sapiens, A-375, A375, Skin (Melanoma)
# [12] = Homo sapiens, A-427, A427, Lung - NSCLC
# [13] = Homo sapiens, A-431, A431, Head and Neck
# [14] = Homo sapiens, AN3-CA, AN3 CA, Female GU - Uterus
# [15] = Homo sapiens, ARH-77, ARH-77, Myeloma
# [16] = Homo sapiens, ASPC1, AsPC-1, Pancreas
# [17] = Homo sapiens, AU565, AU565, Breast
# [18] = Homo sapiens, BCP-1, BCP-1, Lymphoma
# [19] = Homo sapiens, BE(2)-C, BE(2)C, CNS - Neuroblastoma
# [20] = Homo sapiens, BFTC-905, BFTC-905, Bladder
# [21] = Homo sapiens, BHT-101, BHT-101, Endocrine - Thyroid
# [22] = Homo sapiens, BM-1604, BM-1604, Prostate
# [23] = Homo sapiens, BPH-1, BPH1, Prostate
# [24] = Homo sapiens, BT-20, BT20, Breast
structure (smiles),measurement,setting,value
"CC(C)=CCC[C@H](CO)[C@@H]1CC[C@@H](C)c2c1cc(C)c(O)c2O [Compound 1, 7,8,18-trihydroxyserrulat-14-ene]","Number of cell types, GI Activity Potent","GI50 range 0.03-0.099 μM, of 280 cell types",0
same,"Number of cell types, GI Activity moderately potent","GI50 range 0.1-0.99 μM, of 280 cell types",23
same,"Number of cell types, GI Activity Strong","GI50 range 1-2.99 μM, of 280 cell types",149
same,"Number of cell types, GI Activity moderately strong","GI50 range 3-9.99 μM, of 280 cell types",99
same,"Number of cell types, GI Activity weak","GI50 range 10-30.00 μM, of 280 cell types",6
same,"Number of cell types, GI Activity very weak","GI50 range >30 μM, of 280 cell types",1
same,EC50,[1],4.08 µM
same,GI50,"Homo sapiens, 22Rv1, 22Rv1, Prostate, read-out: Cell Count GI50",4.06 µM
same,IC50,[1],4.08 µM
same,GI50,"Homo sapiens, 149 cell lines with strong activity, read-out: GI50",1 to 2.98 µM
same,GI50,"Homo sapiens, 174 cell lines with very potent to strong activity, read-out: GI50",0.006 to 2.98 µM
same,EC50,"Homo sapiens, 647-V, Bladder",3.12 µM
same,GI50,"Homo sapiens, 647-V, Bladder, read-out: Cell Count GI50",3.11 µM
same,IC50,"Homo sapiens, 647-V, Bladder",3.12 µM
same,EC50,"Homo sapiens, 769-P, Kidney",0.85 µM
same,GI50,"Homo sapiens, 769-P, Kidney, read-out: Cell Count GI50",0.85 µM
same,IC50,"Homo sapiens, 769-P, Kidney",0.85 µM
same,EC50,[2],2.05 µM
same,GI50,"Homo sapiens, 786-0, 786-O, Kidney, read-out: Cell Count GI50",2.05 µM
same,IC50,[2],2.05 µM
same,EC50,"Homo sapiens, 5637, Bladder",3.38 µM
same,GI50,"Homo sapiens, 5637, Bladder, read-out: Cell Count GI50",3.32 µM
same,IC50,"Homo sapiens, 5637, Bladder",3.38 µM
same,EC50,[3],0.94 µM
same,GI50,"Homo sapiens, A7, Skin (Melanoma), read-out: Cell Count GI50",0.94 µM
same,IC50,[3],0.94 µM
same,EC50,"Homo sapiens, A101D",8.42 µM
same,GI50,"Homo sapiens, A101D, read-out: Cell Count GI50",8.25 µM
same,IC50,"Homo sapiens, A101D",8.42 µM
same,EC50,[4],1.12 µM
same,GI50,"Homo sapiens, A 172, A172, CNS - Glioma, read-out: Cell Count GI50",1.14 µM
same,IC50,[4],1.15 µM
same,EC50,[5],4.13 µM
same,GI50,"Homo sapiens, A253, A-253, Head and Neck, read-out: Cell Count GI50",4.13 µM
same,IC50,[5],4.14 µM
same,EC50,[6],1.66 µM
same,GI50,"Homo sapiens, A388, Head and Neck, read-out: Cell Count GI50",1.66 µM
same,IC50,[6],1.67 µM
same,EC50,[7],1.29 µM
same,GI50,"Homo sapiens, A498, A498, Kidney, read-out: Cell Count GI50",1.29 µM
same,IC50,[7],1.29 µM
same,EC50,[8],1.66 µM
same,GI50,"Homo sapiens, A549, A549, Lung - NSCLC, read-out: Cell Count GI50",1.66 µM
same,IC50,[8],1.67 µM
same,EC50,[9],1.54 µM
same,GI50,"Homo sapiens, A673, A-673, Soft Tissue - Sarcoma, read-out: Cell Count GI50",1.54 µM
same,IC50,[9],1.55 µM
same,EC50,[10],1.57 µM
same,GI50,"Homo sapiens, A704, A-704, Kidney, read-out: Cell Count GI50",1.54 µM
same,IC50,[10],1.6 µM
same,EC50,[11],1.05 µM
same,GI50,"Homo sapiens, A-375, A375, Skin (Melanoma), read-out: Cell Count GI50",1.05 µM
same,IC50,[11],1.05 µM
same,EC50,[12],4.52 µM
same,GI50,"Homo sapiens, A-427, A427, Lung - NSCLC, read-out: Cell Count GI50",4.5 µM
same,IC50,[12],4.52 µM
same,EC50,[13],2.8 µM
same,GI50,"Homo sapiens, A-431, A431, Head and Neck, read-out: Cell Count GI50",2.8 µM
same,IC50,[13],2.81 µM
same,EC50,"Homo sapiens, ACHN, Kidney",1.74 µM
same,GI50,"Homo sapiens, ACHN, Kidney, read-out: Cell Count GI50",1.74 µM
same,IC50,"Homo sapiens, ACHN, Kidney",1.74 µM
same,EC50,"Homo sapiens, AGS, Stomach",0.7 µM
same,GI50,"Homo sapiens, AGS, Stomach, read-out: Cell Count GI50",0.7 µM
same,IC50,"Homo sapiens, AGS, Stomach",0.7 µM
same,EC50,[14],1.52 µM
same,GI50,"Homo sapiens, AN3-CA, AN3 CA, Female GU - Uterus, read-out: Cell Count GI50",1.49 µM
same,IC50,[14],1.52 µM
same,EC50,[15],1.95 µM
same,GI50,"Homo sapiens, ARH-77, ARH-77, Myeloma, read-out: Cell Count GI50",1.95 µM
same,IC50,[15],1.97 µM
same,EC50,[16],2.87 µM
same,GI50,"Homo sapiens, ASPC1, AsPC-1, Pancreas, read-out: Cell Count GI50",2.84 µM
same,IC50,[16],2.87 µM
same,EC50,[17],1.62 µM
same,GI50,"Homo sapiens, AU565, AU565, Breast, read-out: Cell Count GI50",1.61 µM
same,IC50,[17],1.62 µM
same,EC50,"Homo sapiens, BC-1, Lymphoma",1.52 µM
same,GI50,"Homo sapiens, BC-1, Lymphoma, read-out: Cell Count GI50",1.51 µM
same,IC50,"Homo sapiens, BC-1, Lymphoma",1.52 µM
same,EC50,[18],3.18 µM
same,GI50,"Homo sapiens, BCP-1, BCP-1, Lymphoma, read-out: Cell Count GI50",3.14 µM
same,IC50,[18],3.18 µM
same,EC50,[19],4.23 µM
same,GI50,"Homo sapiens, BE(2)-C, BE(2)C, CNS - Neuroblastoma, read-out: Cell Count GI50",4.18 µM
same,IC50,[19],4.23 µM
same,EC50,[20],1.79 µM
same,GI50,"Homo sapiens, BFTC-905, BFTC-905, Bladder, read-out: Cell Count GI50",1.78 µM
same,IC50,[20],1.79 µM
same,EC50,[21],2.16 µM
same,GI50,"Homo sapiens, BHT-101, BHT-101, Endocrine - Thyroid, read-out: Cell Count GI50",2.17 µM
same,IC50,[21],2.17 µM
same,EC50,[22],2.58 µM
same,GI50,"Homo sapiens, BM-1604, BM-1604, Prostate, read-out: Cell Count GI50",2.56 µM
same,IC50,[22],2.58 µM
same,EC50,[23],5.24 µM
same,GI50,"Homo sapiens, BPH-1, BPH1, Prostate, read-out: Cell Count GI50",5.2 µM
same,IC50,[23],5.24 µM
same,EC50,[24],1.59 µM
same,GI50,"Homo sapiens, BT-20, BT20, Breast, read-out: Cell Count GI50",1.53 µM
same,IC50,[24],1.61 µM
